Measured values as given in ChEMBL document CHEMBL1159106, “Identification of potential and selective collagenase, gelatinase inhibitors from Crataegus pinnatifida” (Bioorg Med Chem Lett, 2010).

Assays:
[1] = Inhibition of collagenase type 4 after 30 mins by fluorescence plate reader
[2] = target: 72 kDa type IV collagenase (Homo sapiens, UniProt P08253); experiment: Inhibition of human rheumatoid synovial fibroblasts gelatinase A after 30 mins by fluorescence plate reader
[3] = target: Matrix metalloproteinase-9 (Homo sapiens, UniProt P14780); experiment: Inhibition of human neutrophils gelatinase B after 30 mins by fluorescence plate reader
Sequence of Matrix metalloproteinase-9 (P14780 whole entry): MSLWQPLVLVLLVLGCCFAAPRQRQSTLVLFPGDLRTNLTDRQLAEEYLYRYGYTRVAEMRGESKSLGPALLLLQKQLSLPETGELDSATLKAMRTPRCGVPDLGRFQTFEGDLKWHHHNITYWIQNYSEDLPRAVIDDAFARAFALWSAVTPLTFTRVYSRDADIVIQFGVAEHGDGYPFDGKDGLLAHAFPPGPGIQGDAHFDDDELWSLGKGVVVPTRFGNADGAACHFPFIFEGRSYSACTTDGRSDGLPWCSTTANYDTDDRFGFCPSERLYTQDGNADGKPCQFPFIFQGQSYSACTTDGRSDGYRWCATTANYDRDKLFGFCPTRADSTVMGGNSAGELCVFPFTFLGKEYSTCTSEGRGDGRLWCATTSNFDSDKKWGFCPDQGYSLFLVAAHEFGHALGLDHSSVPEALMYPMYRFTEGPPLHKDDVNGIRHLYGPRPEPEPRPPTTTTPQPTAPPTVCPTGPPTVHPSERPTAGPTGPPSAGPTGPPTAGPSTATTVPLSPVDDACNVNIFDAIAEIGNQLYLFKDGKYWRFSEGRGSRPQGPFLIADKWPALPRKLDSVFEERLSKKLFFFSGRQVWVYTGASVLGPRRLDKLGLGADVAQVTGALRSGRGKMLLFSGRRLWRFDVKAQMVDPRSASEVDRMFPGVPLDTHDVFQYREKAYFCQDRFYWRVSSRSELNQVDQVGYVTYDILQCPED

Sequence of 72 kDa type IV collagenase (P08253 whole entry): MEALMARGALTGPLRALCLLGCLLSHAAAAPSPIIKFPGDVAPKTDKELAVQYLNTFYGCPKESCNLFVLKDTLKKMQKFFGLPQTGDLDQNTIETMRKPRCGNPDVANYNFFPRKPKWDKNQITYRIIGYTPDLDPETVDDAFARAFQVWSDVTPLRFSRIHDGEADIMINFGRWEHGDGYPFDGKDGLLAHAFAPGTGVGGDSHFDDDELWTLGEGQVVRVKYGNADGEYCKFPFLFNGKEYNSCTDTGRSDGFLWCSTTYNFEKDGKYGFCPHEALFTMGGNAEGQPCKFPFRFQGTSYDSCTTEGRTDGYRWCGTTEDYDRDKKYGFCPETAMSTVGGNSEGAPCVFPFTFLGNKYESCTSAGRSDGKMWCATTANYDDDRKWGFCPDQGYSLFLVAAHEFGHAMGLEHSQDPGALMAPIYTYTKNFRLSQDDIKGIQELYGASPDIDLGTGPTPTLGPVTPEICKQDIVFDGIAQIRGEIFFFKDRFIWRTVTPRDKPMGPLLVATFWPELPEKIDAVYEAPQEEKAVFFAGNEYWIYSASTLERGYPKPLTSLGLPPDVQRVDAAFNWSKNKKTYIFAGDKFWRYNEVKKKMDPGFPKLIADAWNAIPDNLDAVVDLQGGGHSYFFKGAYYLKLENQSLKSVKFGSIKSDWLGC

Oc1cc(O)c2c(c1)O[C@H](c1ccc(O)c(O)c1)[C@H](O)[C@H]2c1c(O)cc2c(c1O)C(c1c(O)cc(O)c3c1O[C@H](c1ccc(O)c(O)c1)[C@H](O)C3)[C@@H](O)[C@@H](c1ccc(O)c(O)c1)O2 (stereo not given in full)
IC50 [1]: 0.34 µM
IC50 [2]: 0.4 µM
IC50 [3]: 2.3 µM

Oc1cc(O)c2c(c1)O[C@H](c1ccc(O)c(O)c1)[C@H](O)[C@H]2c1c(O)cc(O)c2c1O[C@H](c1ccc(O)c(O)c1)[C@H](O)[C@H]2c1c(O)cc2c(c1O)C[C@@H](O)[C@@H](c1ccc(O)c(O)c1)O2
IC50 [1]: 0.98 µM
IC50 [2]: 12.4 µM
IC50 [3]: 27.3 µM

Oc1cc(O)c2c(c1)O[C@H](c1ccc(O)c(O)c1)[C@H](O)[C@H]2c1c(O)cc(O)c2c1O[C@H](c1ccc(O)c(O)c1)[C@H](O)[C@H]2c1c(O)cc(O)c2c1O[C@H](c1ccc(O)c(O)c1)[C@H](O)[C@H]2c1c(O)cc(O)c2c1O[C@H](c1ccc(O)c(O)c1)[C@H](O)[C@H]2c1c(O)cc(O)c2c1O[C@H](c1ccc(O)c(O)c1)[C@H](O)C2
IC50 [1]: 21.4 µM
IC50 [2]: 43.2 µM
IC50 [3]: 39.2 µM

[H]/N=C(\N/C(=N/[H])NCCCCCCNC(=N)NC(=N)Nc1ccc(Cl)cc1)Nc1ccc(Cl)cc1 [CHLORHEXIDINE]
IC50 [2]: 7.63 µM
IC50 [3]: 7.63 µM

CC(C)C[C@H](NP(=O)(O)O[C@@H]1O[C@@H](C)[C@H](O)[C@@H](O)[C@H]1O)C(=O)N[C@@H](Cc1c[nH]c2ccccc12)C(=O)O [PHOSPHORAMIDON]
IC50 [1]: 7.63 µM

Oc1cc(O)c2c(c1)O[C@H](c1ccc(O)c(O)c1)[C@H](O)[C@H]2c1c(O)cc(O)c2c1O[C@H](c1ccc(O)c(O)c1)[C@H](O)[C@H]2c1c(O)cc(O)c2c1O[C@H](c1ccc(O)c(O)c1)[C@H](O)C2 [PROCYANIDIN C1]
IC50 [1]: 11.3 µM
IC50 [2]: 31.4 µM
IC50 [3]: 53.2 µM
